The text below walks through data of patent publication US20240425523A1, “Compounds for the Degradation of EGFR Kinase” (Beigene Switzerland GMBH, priority 2023, published 2024).

The structures appear in SMILES notation.

Type in all cases: cell-based
Assay [1] addresses T1, EGFR L858R (BaF3-L858R cells) (Homo sapiens, UniProt P00533, L858R).
T1 construct: host or cells: BaF3
Briefly: Cell degradation of EGFR, HTRF assay, BaF3-L858R cells. The settings on record: 16 h treatment; for DC50: EGFR degradation; for Dmax: maximum percentage of degradation. The gist of the method: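 EGFR L858R levels measured by HTRF antibody pair in lysed BaF3-L858R cells after 16 h compound exposure (8-point 5-fold series from 10 uM final, 37° C). Degradation is relative to DMSO-only cells; DC50 fitted with Hill equation, Dmax taken as the largest percent loss.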
(In general: In TR-FRET formats the signal depends on donor and acceptor labels being close together.)

For assay [2], the target named is p-EGFR Del19/C797S (H1975-clone #23 cells) (Homo sapiens, UniProt P00533). Briefly: Cell p-EGFR inhibition assay, HTRF, H1975-clone#23 (DEL19/C797S) cells. The settings on record: 16 h treatment; for Imax (%): maximum percentage of pEGFR inhibition; for IC50: pEGFR inhibition. The method, boiled down: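 Phospho-EGFR read by overnight HTRF on lysates, normalized to DMSO-treated high control; IC50, Hill slope and Imax fitted. Compounds were applied for 16 h (10 uM top, 5-fold steps, 8 doses) to an H1975 single clone carrying only exogenous Del19/C797S EGFR after sgRNA knockout of endogenous copies.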

Assay [3] concerns the target T2, p-EGFR L858R (BaF3-L858R cells) (Homo sapiens, UniProt P00533, L858R).
T2 construct: host or cells: BaF3
Briefly: Cell p-EGFR inhibition assay, HTRF, BaF3-L858R cells. The conditions noted are these: 16 h treatment; for Imax (%): maximum percentage of pEGFR inhibition; for IC50: pEGFR inhibition. The gist of the method: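 BaF3-L858R cells treated 16 h at 37 °C, 5% CO2 with compound from 10 uM top, 5-fold dilutions, 8 doses, in 0.1% DMSO medium. Lysates read overnight by HTRF p-EGFR antibodies; IC50 fitted to four-parameter curve against DMSO high control.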

For assay [4], the target named is T3, EGFR-L858R/C797S (H1975-clone #8 cells) (Homo sapiens, UniProt P00533, C797S/L858R).
T3 construct: expressed in transfected cells; host or cells: H1975 (endogenous EGFR knocked out, clone #8)
The experiment in a line: Cell degradation of EGFR, HTRF assay, H1975-clone#8 (L858R/C797S) cells. The conditions noted are these: 16 h treatment; for DC50: EGFR degradation; for Dmax: maximum percentage of degradation.

Usually DC50 stands for the concentration giving 50% degradation. One may read the Dmax as the greatest extent of degradation seen. A lower Dmax goes with a partial loss of target. The IC50 is the concentration at which inhibition is half-maximal. A low value points to inhibition by little substance. For `Cc1cc2cc(n1)-c1cnn(C)c1OC[C@H]1CCC(C1)CN1/C(=N/C2=O)Nc2ccc(N3CCN(C4CCN(c5ccc(OC6CCC(=O)NC6=O)cc5F)CC4)CC3)cc21` (some centres unmarked) [Example 88, 3-(4-(4-(4-((7^1R,7^3S,E)-1^1,2^6-dimethyl-3-oxo-5^2,5^3-dihydro-1^1H,5^1H-9-oxa-4-aza-5(2,1)-benzo[d]imidazola-2(2,4)-pyridina-1(4,5)-pyrazola-7(1,3)-cyclopentanacyclononaphane-5^6-yl)piperazin-1-yl)piperidin-1-yl)-3-fluorophenoxy)piperidine-2,6-dione], in assay [1], the DC50 was 16.4 nM and the Dmax was 95.8%. Also, in assay [2], the “Imax (%)” value is 100.7% and the midpoint of inhibition, the IC50, lay at 3 nM. Moreover, in assay [3], the “Imax (%)” value came to 108.3% and the IC50 was 6.1 nM. Moreover, in assay [4], half-maximal degradation (DC50) was put at 1.63 nM and the Dmax was 82.9%.

Regarding `Cc1cc2cc(n1)-c1cnn(C)c1OC[C@H]1CCC(C1)CN1/C(=N/C2=O)Nc2cc(F)c(N3CCN(C4CCN(c5cnc(C6CCC(=O)NC6=O)cc5C)CC4)CC3)cc21` (some centres unmarked) [Example 100, 3-(5-(4-(4-((7^1R,7^3S,E)-5^5-fluoro-1^1,2^6-dimethyl-3-oxo-5^2,5^3-dihydro-1^1H,5^1H-9-oxa-4-aza-5(2,1)-benzo[d]imidazola-2(2,4)-pyridina-1(4,5)-pyrazola-7(1,3)-cyclopentanacyclononaphane-5^6-yl)piperazin-1-yl)piperidin-1-yl)-4-methylpyridin-2-yl)piperidine-2,6-dione], the half-maximal degradation concentration (DC50) came out at 3.34 nM in assay [1] and 3.07 nM in assay [4]. Further, the Dmax amounted to 72.3% in assay [1] and 87.3% in assay [4]. Also, the figures for the “Imax (%)” value in assay [2] and in assay [3] were 101% and 107.3%, respectively. In addition, the IC50 in assay [2] is 0.5 nM; in assay [3], 6.7 nM.

In assay [1], `Cc1cc2cc(n1)-c1c(C)nn(C)c1OC[C@H]1CC[C@H](C1)CN1/C(=N/C2=O)Nc2ccc(N3CCN([C@@H]4CCN(c5ccc(OC6CCC(=O)NC6=O)cc5)C[C@@H]4F)CC3)cc21` (stereo partly drawn) [Example 144, 3-(4-((3S,4R)-3-fluoro-4-(4-((7^1R,7^3S,E)-1^1,1^3,2^6-trimethyl-3-oxo-5^2,5^3-dihydro-1^1H,5^1H-9-oxa-4-aza-5(2,1)-benzo[d]imidazola-2(2,4)-pyridina-1(4,5)-pyrazola-7(1,3)-cyclopentanacyclononaphane-5^6-yl)piperazin-1-yl)piperidin-1-yl)phenoxy)piperidine-2,6-dione] registered a DC50 of 3.1 nM and a Dmax of 73.6%. Moreover, in assay [2], the “Imax (%)” value stood at 100.78% and the IC50 is 0.97 nM. In assay [3], the “Imax (%)” value is 98.7% and the IC50 turned out to be 5.5 nM. Further, in assay [4], the DC50 was 0.938 nM and the Dmax came to 84.8%.

For `Cc1cc2cc(n1)-c1cnn(C)c1OC[C@H]1CCC(C1)CN1/C(=N/C2=O)Nc2ccc(N3CCN(C4CCN(c5cc(F)c([C@H]6CCC(=O)NC6=O)c(F)c5)CC4)C[C@@H]3CO)cc21` [Example 94, (R)-3-(4-(4-((R)-4-((7^1R,7^3S,E)-1^1,2^6-dimethyl-3-oxo-5^2,5^3-dihydro-1^1H,5^1H-9-oxa-4-aza-5(2,1)-benzo[d]imidazola-2(2,4)-pyridina-1(4,5)-pyrazola-7(1,3)-cyclopentanacyclononaphane-5^6-yl)-3-(hydroxymethyl)piperazin-1-yl)piperidin-1-yl)-2,6-difluorophenyl)piperidine-2,6-dione], in assay [1], the DC50 was 3.37 nM and the Dmax is 71.6%. For the same compound, in assay [2], the “Imax (%)” value amounted to 101.2% and the IC50 was 0.8 nM. In assay [3], the “Imax (%)” value was 99.6% and the midpoint of inhibition, the IC50, lay at 6.1 nM. In assay [4], this compound yielded a DC50 of 0.83 nM and a Dmax of 73.9%.

With `COC[C@H]1CN(c2ccc3c(c2)N2CC4CC[C@H](COc5c(cnn5C)-c5cc(cc(C)n5)C(=O)/N=C/2N3)C4)CCN1C1CCN(c2cc(F)c(C3CCC(=O)NC3=O)nc2C)CC1` (stereo partly drawn) [Example 71, 3-(5-(4-((R)-4-((7^1R,7^3S,E)-1^1,2^6-dimethyl-3-oxo-5^2,5^3-dihydro-1^1H,5^1H-9-oxa-4-aza-5(2,1)-benzo[d]imidazola-2(2,4)-pyridina-1(4,5)-pyrazola-7(1,3)-cyclopentanacyclononaphane-5^6-yl)-2-(methoxymethyl)piperazin-1-yl)piperidin-1-yl)-3-fluoro-6-methylpyridin-2-yl)piperidine-2,6-dione], the half-maximal degradation concentration (DC50) turned out to be 3.63 nM in assay [1] and 3.3 nM in assay [4]. In addition, the Dmax stood at 84.6% in assay [1] and 80.2% in assay [4]. Also, the “Imax (%)” value in assay [2] is on record as 99.8%; in assay [3], 99.7%. For the same compound, the IC50 stood at 1.1 nM in assay [2] and 6.4 nM in assay [3].

In assay [1], `Cc1cc2cc(n1)-c1c(C(F)F)nn(C)c1OC[C@H]1CCC(C1)CN1/C(=N/C2=O)Nc2ccc(N3CCN(C4CCN(c5c(F)cc(NC6CCC(=O)NC6=O)cc5F)CC4)CC3)cc21` (some centres unmarked) [Example 99, 3-((4-(4-(4-((7^1R,7^3S,E)-1^3-(difluoromethyl)-1^1,2^6-dimethyl-3-oxo-5^2,5^3-dihydro-1^1H,5^1H-9-oxa-4-aza-5(2,1)-benzo[d]imidazola-2(2,4)-pyridina-1(4,5)-pyrazola-7(1,3)-cyclopentanacyclononaphane-5^6-yl)piperazin-1-yl)piperidin-1-yl)-3,5-difluorophenyl)amino)piperidine-2,6-dione] yielded a DC50 of 1.06 nM and a Dmax of 82.3%. Further, in assay [2], the “Imax (%)” value worked out at 99.2% and the IC50 was 2.2 nM. Further, in assay [3], the “Imax (%)” value was found to be 100.3% and the IC50 came out at 8 nM. Besides, in assay [4], half-maximal degradation (DC50) was put at 6 nM and the Dmax amounted to 85.6%.

In assay [1], `Cc1cc2cc(n1)-c1c(C)nn(C)c1OC[C@H]1CC[C@H](C1)CN1/C(=N/C2=O)Nc2ccc(N3C[C@H](C)N(C4CCN(c5cc(F)c([C@H]6CCC(=O)NC6=O)c(F)c5)CC4)C[C@H]3C)cc21` [Example 191, (R)-3-(4-(4-((2S,5R)-2,5-dimethyl-4-((7^1R,7^3S,E)-1^1,1^3,2^6-trimethyl-3-oxo-5^2,5^3-dihydro-1^1H,5^1H-9-oxa-4-aza-5(2,1)-benzo[d]imidazola-2(2,4)-pyridina-1(4,5)-pyrazola-7(1,3)-cyclopentanacyclononaphane-5^6-yl)piperazin-1-yl)piperidin-1-yl)-2,6-difluorophenyl)piperidine-2,6-dione] had a DC50 of 2.94 nM and a Dmax of 89.3%. Further, in assay [2], the “Imax (%)” value stood at 99.88% and inhibition was half-maximal at 0.769 nM (IC50). Besides, in assay [3], the “Imax (%)” value amounted to 90.84% and the 50% inhibitory concentration (IC50) came out at 0.528 nM. For the same compound, in assay [4], it took 0.73 nM to reach half-maximal degradation (DC50) and the Dmax was 88.7%.
